Assay results reported in the NIST ThermoML archive (doi:10.1016/j.jct.2016.06.031).
Numbers after ± are expanded uncertainties.

Tests used:
[1] = Liquid; for mass density: 101.33 kPa, Vibrating tube method; for vapor or sublimation pressure: Closed cell (Static) method
[2] = refractive index (Na D-line) (dimensionless); conditions: 101.33 kPa, Liquid, Standard Abbe refractometry

CCCCCCC [heptane]
mass density ([1]; 293.15 K): 683.8 ± 0.9 kg/m3
mass density ([1]; 295.15 K): 681.6 ± 0.9 kg/m3
mass density ([1]; 297.15 K): 679.9 ± 0.9 kg/m3
mass density ([1]; 298.15 K): 679.1 ± 0.9 kg/m3
mass density ([1]; 300.4 K): 677.1 ± 0.9 kg/m3
refractive index ([2]; 293.15 K): 1.3878 ± 0.0007
refractive index ([2]; 298.15 K): 1.3852 ± 0.0007

FC(F)(F)C(F)(F)F [hexafluoroethane]
vapor or sublimation pressure ([1]; 273.06 K): 1839 ± 6 kPa
vapor or sublimation pressure ([1]; 278.07 K): 2100 ± 6 kPa
vapor or sublimation pressure ([1]; 283.07 K): 2388 ± 7 kPa
vapor or sublimation pressure ([1]; 288.07 K): 2701 ± 7 kPa
vapor or sublimation pressure ([1]; 292.07 K): 2972 ± 8 kPa
